Laboratory results published in the supplement of paper PMC10307832.

Tests used:
Assay in all cases: relative viability (nuclei count vs DMSO), 5 days (fraction); higher = more cells survive
[1] = compound: C[C@@]1(C(=O)Nc2ccc(F)nc2)CCCN1c1nc(Nc2cc(C3CC3)n[nH]2)c2cccn2n1 + CC(C)C[C@H](NC(=O)[C@H](Cc1ccccc1)NC(=O)c1cnccn1)B(O)O [Bortezomib] (partner 0.002 µM)
In short: (§1)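 One day after seeding in 1536-well plates, lung cancer cell lines were dosed by pin tool. Dosing was either single-drug or a fixed anchor-drug dose plus five library-drug doses (not always all listed) in √10 steps. After 5 days, nuclei were stained in one fix-and-stain step and counted on 4× images, and relative viability is the nuclei count of treated wells over that of vehicle wells, given as the median of duplicate plates.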

[2] = compound: CC1(C)CNc2cc(NC(=O)c3cccnc3NCc3ccncc3)ccc21 [Motesanib] + CC(=O)c1c(C)c2cnc(Nc3ccc(N4CCNCC4)cn3)nc2n(C2CCCC2)c1=O [Palbociclib] (partner 0.5 µM)
In short: as §1

[3] = compound: CC1(C)CNc2cc(NC(=O)c3cccnc3NCc3ccncc3)ccc21 [Motesanib] + C[C@@H](Oc1cc(-c2cnn(C3CCNCC3)c2)cnc1N)c1c(Cl)ccc(F)c1Cl [Crizotinib] (partner 1 µM)
In short: as §1

[4] = compound: C[C@@]1(C(=O)Nc2ccc(F)nc2)CCCN1c1nc(Nc2cc(C3CC3)n[nH]2)c2cccn2n1 + O=C(CCCCCCC(=O)Nc1ccccc1)NO [Vorinostat] (partner 1 µM)
In short: as §1

Cell Line | relative viability ([1]; first compound 0.04 µM) | relative viability ([1]; first compound 0.1265 µM) | relative viability ([1]; first compound 0.4 µM) | relative viability ([1]; first compound 1.265 µM) | relative viability ([2]; first compound 0.01 µM) | relative viability ([2]; first compound 0.03162 µM) | relative viability ([2]; first compound 0.1 µM) | relative viability ([2]; first compound 0.3162 µM) | relative viability ([2]; first compound 1 µM) | relative viability ([3]; first compound 0.01 µM) | relative viability ([3]; first compound 0.03162 µM) | relative viability ([3]; first compound 0.1 µM) | relative viability ([3]; first compound 0.3162 µM) | relative viability ([3]; first compound 1 µM) | relative viability ([4]; first compound 0.04 µM) | relative viability ([4]; first compound 0.1265 µM) | relative viability ([4]; first compound 0.4 µM) | relative viability ([4]; first compound 1.265 µM)
201T | 1.1 | 0.958 | 1.01 | 0.957 | 0.34 | 0.343 | 0.358 | 0.371 | 0.373 | 1.02 | 1.07 | 1.04 | 1.04 | 1.06 | 0.858 | 0.755 | 0.634 | 0.62
A549 |  |  |  |  |  |  |  |  |  | 0.741 | 0.663 | 0.746 | 0.754 | 0.777 |  |  |  | 
A-427 | 1 | 0.995 | 0.897 | 1.01 | 0.527 | 0.506 | 0.512 | 0.526 | 0.549 | 0.933 | 0.892 | 0.983 | 0.888 | 1.04 | 0.93 | 0.857 | 0.864 | 0.49
ABC-1 | 0.329 | 0.318 | 0.264 | 0.183 | 0.633 | 0.541 | 0.7 | 0.938 | 0.763 | 0.996 | 1.03 | 1.26 | 1.14 | 1.32 | 1.23 | 0.819 | 0.708 | 0.409
BEN | 1.11 | 0.785 | 0.815 | 0.903 | 0.458 | 0.457 | 0.478 | 0.481 | 0.476 | 0.792 | 0.85 | 0.803 | 0.928 | 0.978 | 0.537 | 0.492 | 0.467 | 0.439
CAL-12T | 1.12 | 0.826 | 0.957 | 0.734 | 0.418 | 0.524 | 0.347 | 0.415 | 0.563 | 0.627 | 0.56 | 0.664 | 0.758 | 0.559 | 0.574 | 0.567 | 0.461 | 0.33
COR-L23 | 1.06 | 1.01 | 0.936 | 0.583 | 0.297 | 0.26 | 0.272 | 0.273 | 0.32 | 0.512 | 0.639 | 0.703 | 0.643 | 0.547 | 0.345 | 0.323 | 0.115 | 0.109
COR-L 105 | 0.709 | 0.631 | 0.415 | 0.373 | 0.393 | 0.45 | 0.401 | 0.438 | 0.448 | 0.981 | 0.739 | 0.743 | 0.73 | 0.756 | 0.845 | 0.611 | 0.579 | 0.604
Calu-6 | 1.01 | 0.957 | 0.929 | 0.359 |  |  |  |  |  | 0.794 | 0.744 | 0.78 | 0.758 | 0.783 |  |  |  | 
ChaGo-K-1 | 1.01 | 0.797 | 1.1 | 0.824 | 0.899 | 0.881 | 0.976 | 0.856 | 0.908 |  | 1.16 | 1.1 | 1.18 | 1.15 | 0.713 | 0.636 | 0.626 | 0.671
EBC-1 | 0.527 | 0.509 | 0.52 | 0.302 |  |  |  |  |  | 0.178 | 0.19 | 0.205 | 0.193 | 0.181 |  |  |  | 
EKVX | 1.01 | 1.05 | 0.796 | 0.926 | 0.415 | 0.347 | 0.378 | 0.36 | 0.398 | 0.988 | 0.889 | 0.916 | 1.09 | 0.898 | 0.616 | 0.648 | 0.509 | 0.684
EMC-BAC-2 | 0.948 | 0.871 | 0.804 | 0.78 | 0.513 | 0.511 | 0.526 | 0.526 | 0.534 | 0.761 | 0.656 | 0.765 | 0.739 | 0.674 | 0.37 | 0.343 | 0.304 | 0.178
EPLC-272H | 0.859 | 0.78 | 0.702 | 0.878 | 0.284 | 0.3 | 0.344 | 0.36 | 0.381 | 0.935 | 0.969 | 1.05 | 1.04 | 0.944 | 0.578 | 0.234 | 0.336 | 0.406
H3255 | 0.973 | 1.02 | 0.719 | 0.669 | 0.308 | 0.326 | 0.322 | 0.348 | 0.363 | 0.793 | 0.883 | 0.986 | 0.838 | 0.863 | 0.852 | 0.816 | 0.815 | 0.829
HARA | 1.11 | 1.12 | 0.684 | 1.05 | 0.281 | 0.211 | 0.282 | 0.253 | 0.315 | 1.1 | 0.993 | 1.06 | 1.1 | 1.04 | 0.364 | 0.233 | 0.31 | 0.433
HCC-15 | 0.943 | 0.742 | 0.881 | 1 | 0.777 | 0.668 | 0.695 | 0.768 | 0.702 | 0.778 | 0.782 | 0.799 | 0.835 | 0.838 | 0.689 | 0.51 | 0.555 | 0.774
HCC-44 | 0.862 | 0.81 | 0.648 | 0.685 | 0.945 | 0.944 | 1.02 | 0.972 | 0.942 | 0.883 | 0.8 | 0.801 | 0.765 | 0.901 | 1.08 | 1.02 | 0.887 | 1.08
HCC-78 | 0.445 | 0.855 | 0.293 | 0.317 | 0.442 | 0.467 | 0.478 | 0.511 | 0.56 | 0.378 | 0.352 | 0.37 | 0.326 | 0.384 | 0.33 | 0.491 | 0.245 | 0.327
HCC-366 | 1.06 | 1.04 | 1 | 0.802 | 0.354 | 0.36 | 0.367 | 0.452 | 0.435 | 0.575 | 0.487 | 0.605 | 0.556 | 0.596 | 0.395 | 0.315 | 0.2 | 0.0599
